Reference: patent US7750017B2, “Heterocycles” (Bayer Schering Pharma Aktiengesellschaft, priority 2004, dated 2010)
Counter-ions that a name gives are not always drawn.

Assays:
[1] = test system: BT474 [human breast carcinoma, overexpressing HER2 (ErbB2)]; assay: In vitro tumor cell proliferation assay (Cell Titer-Glo luminescent cell viability), BT474 cells; format: cell-based; details: BT-474, 72 h, 72 hours of drug exposure, Cell Titer-Glo readout, read-out: IC50, anti-proliferative activity in BT474 cells
[2] = test system: A431 cells [human epidermoid carcinoma, overexpressing HER1 (EGFR, ErbB1)]; assay: In vitro tumor cell proliferation assay (Cell Titer-Glo luminescent cell viability), A431 cells; format: cell-based; details: A-431, 72 h, 72 hours of drug exposure, Cell Titer-Glo readout, read-out: IC50, anti-proliferative activity in A431 cells

Structure (SMILES) | IC50 [1] [µM] | IC50 [2] [µM]
OC[C@@H](O)c1ccc2c(c1)sc1ncnc(Nc3ccc(OCc4ccccn4)c(Cl)c3)c12 [Example 74, (1S)-1-(4-{[3-chloro-4-(pyridin-2-ylmethoxy)phenyl]amino}[1]benzothieno[2,3-d]pyrimidin-7-yl)ethane-1,2-diol] | ≤ 0.5 | ≤ 50
OC[C@H](O)c1ccc2c(c1)sc1ncnc(Nc3ccc(OCc4ccccn4)c(Cl)c3)c12 [Example 75, (1R)-1-(4-{[3-chloro-4-(pyridin-2-ylmethoxy)phenyl]amino}[1]benzothieno[2,3-d]pyrimidin-7-yl)ethane-1,2-diol] | ≤ 0.5 | ≤ 50
Clc1cc(Nc2ncnc3sc4cc(N5CCOCC5)ccc4c23)ccc1OCc1ccccn1 [Example 76, N-[3-chloro-4-(pyridin-2-ylmethoxy)phenyl]-7-morpholin-4-yl[1]benzothieno[2,3-d]pyrimidin-4-amine trifluoroacetate] | ≤ 0.5 | ≤ 50
CN1CCN(c2ccc3c(c2)sc2ncnc(Nc4ccc(OCc5ccccn5)c(Cl)c4)c23)CC1 [Example 77, N-[3-chloro-4-(pyridin-2-ylmethoxy)phenyl]-7-(4-methylpiperazin-1-yl)[1]benzothieno [2,3-d]pyrimidin-4-amine trifluoroacetate] | ≤ 0.5 | ≤ 5
Clc1cc(Nc2ncnc3sc4cc(NCCN5CCOCC5)ccc4c23)ccc1OCc1ccccn1 [Example 78, N4-[3-chloro-4-(pyridin-2-ylmethoxy)phenyl]-N7-(2-morpholin-4-ylethyl)[1] benzothieno[2,3-d]pyrimidine-4,7-diamine trifluoroacetate] | ≤ 5 | ≤ 50
Clc1cc(Nc2ncnc3sc4cc(CCBr)ccc4c23)ccc1OCc1ccccn1 [Example 83, 7-(2-bromoethyl)-N-[3-chloro-4-(pyridin-2-ylmethoxy)phenyl][1] benzothieno[2,3-d]pyrimidin-4-amine] | ≤ 0.5 | ≤ 5
Clc1cc(Nc2ncnc3sc4cc(CCN5CCOCC5)ccc4c23)ccc1OCc1ccccn1 [Example 84, N-[3-chloro-4-(pyridin-2-ylmethoxy)phenyl]-7-(2-morpholin-4-ylethyl)[1]benzothieno[2,3-d] pyrimidin-4-amine] | ≤ 0.5 | ≤ 50
CS(=O)(=O)CCNCCc1ccc2c(c1)sc1ncnc(Nc3ccc(OCc4ccccn4)c(Cl)c3)c12 [Example 85, N-[3-chloro-4-(pyridin-2-ylmethoxy)phenyl]-7-(2-{[2-(methylsulfonyl)ethyl]amino}ethyl) [1]benzothieno[2,3-d]pyrimidin-4-amine trifluoroacetate] | ≤ 0.5 | ≤ 5
COCCNCCc1ccc2c(c1)sc1ncnc(Nc3ccc(OCc4ccccn4)c(Cl)c3)c12 [Example 86, N-[3-chloro-4-(pyridin-2-ylmethoxy)phenyl]-7-{2-[(2-methoxyethyl)amino]ethyl}[1] benzothieno[2,3-d]pyrimidin-4-amine trifluoroacetate] | ≤ 0.5 | ≤ 5
Clc1cc(Nc2ncnc3sc4cc(CCN5CCCC5)ccc4c23)ccc1OCc1ccccn1 [Example 87, N-[3-chloro-4-(pyridin-2-ylmethoxy)phenyl]-7-(2-pyrrolidin-1-ylethyl)[1]benzothieno[2,3-d] pyrimidin-4-amine trifluoroacetate] | ≤ 5 | ≤ 50
COCCN(CCOC)CCc1ccc2c(c1)sc1ncnc(Nc3ccc(OCc4ccccn4)c(Cl)c3)c12 [Example 93, 7-{2-[bis(2-methoxyethyl)amino]ethyl}-N-[3-chloro-4-(pyridin-2-ylmethoxy)phenyl][1]benzothieno [2,3-d]pyrimidin-4-amine trifluoroacetate] | ≤ 0.5 | ≤ 50
O=C(O)Cc1ccc2c(c1)sc1ncnc(Nc3ccc(OCc4ccccn4)c(Cl)c3)c12 [Example 94, (4-{[3-chloro-4-(pyridin-2-ylmethoxy)phenyl]amino}[1]benzothieno[2,3-d]pyrimidin-7-yl)acetic acid] | ≤ 5 | ≤ 50
O=C(Cc1ccc2c(c1)sc1ncnc(Nc3ccc(OCc4ccccn4)c(Cl)c3)c12)N1CCOCC1 [Example 95, N-[3-chloro-4-(pyridin-2-ylmethoxy)phenyl]-7-(2-morpholin-4-yl-2-oxoethyl)[1]benzothieno[2,3-d]pyrimidin-4-amine] | ≤ 5 | ≤ 50
CN1CCN(C(=O)Cc2ccc3c(c2)sc2ncnc(Nc4ccc(OCc5ccccn5)c(Cl)c4)c23)CC1 [Example 96, N-[3-chloro-4-(pyridin-2-ylmethoxy)phenyl]-7-[2-(4-methylpiperazin-1-yl)-2-oxoethyl][1]benzothieno[2,3-d] pyrimidin-4-amine] | ≤ 0.5 | ≤ 50
O=C(Cc1ccc2c(c1)sc1ncnc(Nc3ccc(OCc4ccccn4)c(Cl)c3)c12)NCCN1CCOCC1 [Example 97, 2-(4-{[3-chloro-4-(pyridin-2-ylmethoxy)phenyl]amino}[1]benzothieno[2,3-d]pyrimidin-7-yl)-N-(2-morpholin-4-ylethyl) acetamide] | ≤ 0.5 | ≤ 50
O=C(Cc1ccc2c(c1)sc1ncnc(Nc3ccc(OCc4ccccn4)c(Cl)c3)c12)N1CCCC1 [Example 99, N-[3-chloro-4-(pyridin-2-ylmethoxy)phenyl]-7-(2-oxo-2-pyrrolidin-1-ylethyl)[1]benzothieno [2,3-d]pyrimidin-4-amine] | ≤ 5 | ≤ 50

The next lines start with the values.

IC50 [1] [µM] | IC50 [2] [µM] | Structure (SMILES)
≤ 0.5 | ≤ 5 | CS(=O)(=O)CCNC(=O)CCc1ccc2c(c1)sc1ncnc(Nc3ccc(OCc4cccc(F)c4)c(Cl)c3)c12 [Example 69, 3-[4-({3-chloro-4-[(3-fluorobenzyl)oxy]phenyl}amino)[1]benzothieno[2,3-d]pyrimidin-7-yl]-N-[2-(methylsulfonyl)ethyl] propanamide]
≤ 5 | ≤ 5 | CN(C)CCNC(=O)CCc1ccc2c(c1)sc1ncnc(Nc3ccc(OCc4cccc(F)c4)c(Cl)c3)c12 [Example 70, 3-[4-({3-chloro-4-[(3-fluorobenzyl)oxy]phenyl}amino)[1]benzothieno[2,3-d]pyrimidin-7-yl]-N-[2-(dimethylamino)ethyl] propanamide]
≤ 5 | ≤ 50 | Clc1cc(Nc2ncnc3sc4cc(Br)ccc4c23)ccc1OCc1ccccn1 [Example 71, 7-bromo-N-[3-chloro-4-(pyridin-2-ylmethoxy)phenyl][1]benzothieno[2,3-d]pyrimidin-4-amine]
≤ 5 | ≤ 50 | C=Cc1ccc2c(c1)sc1ncnc(Nc3ccc(OCc4ccccn4)c(Cl)c3)c12 [Example 72, N-[3-chloro-4-(pyridin-2-ylmethoxy)phenyl]-7-vinyl[1]benzothieno[2,3-d]pyrimidin-4-amine]
≤ 5 | ≤ 50 | COCCCNc1ccc2c(c1)sc1ncnc(Nc3ccc(OCc4ccccn4)c(Cl)c3)c12 [Example 79, N4-[3-chloro-4-(pyridin-2-ylmethoxy)phenyl]-N7-(3-methoxypropyl)[1]benzothieno [2,3-d]pyrimidine-4,7-diamine trifluoroacetate]
≤ 5 | ≤ 50 | CCOC(=O)Cc1ccc2c(c1)sc1ncnc(Nc3ccc(OCc4ccccn4)c(Cl)c3)c12 [Example 81, ethyl {4-[3-Chloro-4-(pyridin-2-ylmethoxy)-phenylamino]-benzo [4,5]thieno[2,3-d]pyrimidin-7-yl}-acetate trifluoroacetate]
≤ 0.5 | ≤ 5 | OCCc1ccc2c(c1)sc1ncnc(Nc3ccc(OCc4ccccn4)c(Cl)c3)c12 [Example 82, 2-(4-{[3-chloro-4-(pyridin-2-ylmethoxy)phenyl]amino}[1]benzothieno[2,3-d]pyrimidin-7-yl) ethanol]
≤ 0.5 | ≤ 50 | OCCNCCc1ccc2c(c1)sc1ncnc(Nc3ccc(OCc4ccccn4)c(Cl)c3)c12 [Example 88, 2-{[2-(4-{[3-chloro-4-(pyridin-2-ylmethoxy)phenyl]amino}[1]benzothieno[2,3-d]pyrimidin-7-yl)ethyl]amino}ethanol trifluoroacetate (salt)]
≤ 0.5 | ≤ 50 | Clc1cc(Nc2ncnc3sc4cc(CCN5CCNCC5)ccc4c23)ccc1OCc1ccccn1 [Example 89, N-[3-chloro-4-(pyridin-2-ylmethoxy)phenyl]-7-(2-piperazin-1-ylethyl)[1]benzothieno[2,3-d] pyrimidin-4-amine trifluoroacetate]
≤ 0.5 | ≤ 5 | CCNCCc1ccc2c(c1)sc1ncnc(Nc3ccc(OCc4ccccn4)c(Cl)c3)c12 [Example 90, N-[3-chloro-4-(pyridin-2-ylmethoxy)phenyl]-7-[2-(ethylamino)ethyl][1]benzothieno [2,3-d]pyrimidin-4-amine trifluoroacetate]
≤ 5 | ≤ 50 | O=C(Cc1ccc2c(c1)sc1ncnc(Nc3ccc(OCc4ccccn4)c(Cl)c3)c12)NCCOCCO [Example 98, 2-(4-{[3-chloro-4-(pyridin-2-ylmethoxy)phenyl]amino}[1]benzothieno[2,3-d]pyrimidin-7-yl)-N-[2-(2-hydroxyethoxy)ethyl] acetamide]
≤ 0.5 | ≤ 50 | CN(C)CCNC(=O)Cc1ccc2c(c1)sc1ncnc(Nc3ccc(OCc4ccccn4)c(Cl)c3)c12 [Example 100, 2-(4-{[3-chloro-4-(pyridin-2-ylmethoxy)phenyl]amino}[1]benzothieno[2,3-d]pyrimidin-7-yl)-N-[(2-dimethylamino)ethyl]acetamide]
≤ 5 | ≤ 5 | COCCN(CCOC)C(=O)Cc1ccc2c(c1)sc1ncnc(Nc3ccc(OCc4ccccn4)c(Cl)c3)c12 [Example 101, 2-(4-{[3-chloro-4-(pyridin-2-ylmethoxy)phenyl]amino}[1]benzothieno[2,3-d]pyrimidin-7-yl)-N,N-bis (2-methoxyethyl)acetamide]
